Substitutions are numbered along the chain they refer to.
How the values were obtained:
Experiment in all cases: SPR, protein over lipid vesicles on L1 chip
Format in all cases: binding
sTIM-4 = molecular target: T1, sTIM-4 (Homo sapiens, UniProt Q96H15)
T1 sequence (Q96H15 25-314 limits assumed): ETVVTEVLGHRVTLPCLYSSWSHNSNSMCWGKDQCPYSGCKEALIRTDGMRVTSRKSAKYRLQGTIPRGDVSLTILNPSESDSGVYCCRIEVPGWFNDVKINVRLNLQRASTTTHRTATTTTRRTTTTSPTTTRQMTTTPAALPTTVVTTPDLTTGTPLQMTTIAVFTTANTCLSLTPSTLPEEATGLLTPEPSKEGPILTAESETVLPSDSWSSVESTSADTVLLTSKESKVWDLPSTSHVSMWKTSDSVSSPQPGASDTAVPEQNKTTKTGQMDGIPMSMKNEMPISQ

sTIM-1 = molecular target: T2, sTIM-1 (Homo sapiens, UniProt Q96D42)
T2 sequence (Q96D42 21-295 limits assumed): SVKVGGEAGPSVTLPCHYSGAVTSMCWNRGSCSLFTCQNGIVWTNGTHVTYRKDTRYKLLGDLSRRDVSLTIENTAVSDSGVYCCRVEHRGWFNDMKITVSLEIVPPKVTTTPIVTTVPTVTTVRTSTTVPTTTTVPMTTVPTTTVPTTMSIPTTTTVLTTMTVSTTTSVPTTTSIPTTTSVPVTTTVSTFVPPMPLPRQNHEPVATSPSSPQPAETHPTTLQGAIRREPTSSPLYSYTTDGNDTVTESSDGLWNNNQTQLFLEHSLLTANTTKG

sTIM-3 [1] = molecular target: T3, sTIM-3 (Homo sapiens, UniProt Q8TDQ0)
T3 sequence (Q8TDQ0 22-202 limits assumed): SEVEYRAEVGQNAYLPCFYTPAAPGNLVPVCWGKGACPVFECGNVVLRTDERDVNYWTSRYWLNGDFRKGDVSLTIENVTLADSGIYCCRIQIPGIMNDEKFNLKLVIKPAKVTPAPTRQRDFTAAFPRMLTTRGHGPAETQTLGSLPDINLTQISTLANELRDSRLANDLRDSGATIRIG

sTIM-3 [2] = molecular target: T4, sTIM-3 (Homo sapiens, UniProt Q8TDQ0, I117A/M118A)
T4 sequence (Q8TDQ0 22-202 I117A/M118A limits assumed): T3 sequence (Q8TDQ0 22-202 limits assumed) with I96A, M97A

sTIM-3 [3] = molecular target: T5, sTIM-3 (Homo sapiens, UniProt Q8TDQ0, F61A)
T5 sequence (Q8TDQ0 22-202 F61A limits assumed): T3 sequence (Q8TDQ0 22-202 limits assumed) with F40A

CCCCCCCC/C=C\CCCCCCCC(=O)OC[C@H](COP(=O)(O)OC[C@H](N)C(=O)O)OC(=O)CCCCCCC/C=C\CCCCCCCC [DOPS]
Kd (sTIM-4): 0.77 ± 0.32 µM | Kd (sTIM-1): 0.35 ± 0.05 µM | Kd (sTIM-3 [1]): 9.7 ± 4.2 µM | Kd (sTIM-3 [2]): > 200 µM | Kd (sTIM-3 [3]): > 200 µM
